Test [1] has as its system TALL-104 CTL human leukemia cells. As to the kind of experiment: Cytotoxic T-lymphocyte. It is filed as cell-based. To be noted: 100 μM.
The target of a further test is HDAC3 (Homo sapiens, UniProt O15379). The test can be described thus: HDAC isozyme panel at BPS Bioscience, HDAC3. The following applies: read-out: % inhibition of HDAC3. It is filed as biochemical.
A further test concerns the target T1, HDAC10 (Homo sapiens, UniProt Q969S8).
T1 sequence (Q969S8 1-669): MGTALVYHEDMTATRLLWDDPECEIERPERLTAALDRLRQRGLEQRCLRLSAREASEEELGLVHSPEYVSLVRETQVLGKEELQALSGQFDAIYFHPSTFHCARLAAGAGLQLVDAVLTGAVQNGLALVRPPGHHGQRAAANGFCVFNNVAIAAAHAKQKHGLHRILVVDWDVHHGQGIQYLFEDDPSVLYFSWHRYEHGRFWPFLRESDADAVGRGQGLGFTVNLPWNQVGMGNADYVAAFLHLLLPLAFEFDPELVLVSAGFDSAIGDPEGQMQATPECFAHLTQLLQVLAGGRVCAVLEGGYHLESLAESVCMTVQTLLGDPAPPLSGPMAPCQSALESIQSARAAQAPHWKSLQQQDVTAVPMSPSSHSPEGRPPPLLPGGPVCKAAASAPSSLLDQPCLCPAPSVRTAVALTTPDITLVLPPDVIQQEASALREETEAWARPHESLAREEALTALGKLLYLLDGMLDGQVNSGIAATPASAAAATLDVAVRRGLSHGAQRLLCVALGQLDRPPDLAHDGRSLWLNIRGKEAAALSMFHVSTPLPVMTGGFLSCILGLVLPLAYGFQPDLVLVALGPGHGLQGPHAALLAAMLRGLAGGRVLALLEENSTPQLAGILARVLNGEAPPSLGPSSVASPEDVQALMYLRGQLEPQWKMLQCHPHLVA
The test can be described thus: HDAC isozyme panel at BPS Bioscience, HDAC10. It is filed as biochemical. To be noted: read-out: % inhibition of HDAC10.

In a further test the target is T2, HDAC6 (Homo sapiens, UniProt Q9UBN7).
T2 sequence (Q9UBN7 1-1215): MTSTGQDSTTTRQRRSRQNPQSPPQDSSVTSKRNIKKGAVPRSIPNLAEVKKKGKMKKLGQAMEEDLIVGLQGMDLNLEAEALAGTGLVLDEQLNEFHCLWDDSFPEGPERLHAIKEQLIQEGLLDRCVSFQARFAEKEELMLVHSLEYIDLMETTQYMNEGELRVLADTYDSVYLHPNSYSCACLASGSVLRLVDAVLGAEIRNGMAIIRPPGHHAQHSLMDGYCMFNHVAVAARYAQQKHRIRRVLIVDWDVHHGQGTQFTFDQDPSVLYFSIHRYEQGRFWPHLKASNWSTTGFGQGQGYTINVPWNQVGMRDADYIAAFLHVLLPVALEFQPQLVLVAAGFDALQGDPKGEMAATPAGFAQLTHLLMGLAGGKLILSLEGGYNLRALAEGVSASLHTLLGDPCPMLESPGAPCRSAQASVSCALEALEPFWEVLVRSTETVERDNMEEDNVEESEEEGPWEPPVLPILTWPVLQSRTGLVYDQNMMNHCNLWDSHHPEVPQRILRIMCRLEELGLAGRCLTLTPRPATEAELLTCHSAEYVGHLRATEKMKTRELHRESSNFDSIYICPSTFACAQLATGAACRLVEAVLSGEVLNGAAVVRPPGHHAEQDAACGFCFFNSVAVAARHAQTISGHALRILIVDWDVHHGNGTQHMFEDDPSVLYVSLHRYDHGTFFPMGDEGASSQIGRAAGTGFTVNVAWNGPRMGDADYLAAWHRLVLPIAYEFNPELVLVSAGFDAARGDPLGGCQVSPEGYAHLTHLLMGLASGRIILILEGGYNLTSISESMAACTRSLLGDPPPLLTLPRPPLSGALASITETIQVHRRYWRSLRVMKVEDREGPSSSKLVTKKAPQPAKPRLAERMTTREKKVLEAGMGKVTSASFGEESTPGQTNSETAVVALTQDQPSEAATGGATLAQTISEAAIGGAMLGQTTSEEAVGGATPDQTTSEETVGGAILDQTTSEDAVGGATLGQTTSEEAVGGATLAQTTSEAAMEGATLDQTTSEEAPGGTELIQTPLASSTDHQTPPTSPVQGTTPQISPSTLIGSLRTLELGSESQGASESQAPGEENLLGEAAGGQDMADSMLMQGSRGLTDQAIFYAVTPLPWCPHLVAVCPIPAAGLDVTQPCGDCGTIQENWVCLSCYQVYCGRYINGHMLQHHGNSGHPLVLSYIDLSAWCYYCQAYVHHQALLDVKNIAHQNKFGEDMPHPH
As to the kind of experiment: HDAC isozyme panel at BPS Bioscience, HDAC6. The following applies: read-out: % inhibition of HDAC6. It is filed as biochemical.

In the next test the target is HDAC1 (Homo sapiens, UniProt Q13547). As to the kind of experiment: HDAC isozyme panel at BPS Bioscience, HDAC1. To be noted: read-out: % inhibition of HDAC1. The class given is biochemical.

The term inhibition denotes the share of the control response that was lost under treatment.

Chain of HDAC1 (Q13547 whole entry): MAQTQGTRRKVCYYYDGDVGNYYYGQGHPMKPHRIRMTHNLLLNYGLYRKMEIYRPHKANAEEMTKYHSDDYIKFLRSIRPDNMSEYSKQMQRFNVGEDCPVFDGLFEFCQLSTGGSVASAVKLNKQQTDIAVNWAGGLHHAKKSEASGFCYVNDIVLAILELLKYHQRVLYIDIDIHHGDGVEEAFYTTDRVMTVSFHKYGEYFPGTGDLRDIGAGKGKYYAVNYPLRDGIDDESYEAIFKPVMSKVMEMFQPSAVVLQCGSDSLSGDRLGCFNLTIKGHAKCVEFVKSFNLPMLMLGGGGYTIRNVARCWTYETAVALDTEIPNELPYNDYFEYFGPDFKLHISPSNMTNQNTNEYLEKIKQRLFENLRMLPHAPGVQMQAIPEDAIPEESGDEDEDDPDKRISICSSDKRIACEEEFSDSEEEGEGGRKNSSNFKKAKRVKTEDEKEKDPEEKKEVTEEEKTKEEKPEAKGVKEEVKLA
Chain of HDAC3 (O15379 whole entry): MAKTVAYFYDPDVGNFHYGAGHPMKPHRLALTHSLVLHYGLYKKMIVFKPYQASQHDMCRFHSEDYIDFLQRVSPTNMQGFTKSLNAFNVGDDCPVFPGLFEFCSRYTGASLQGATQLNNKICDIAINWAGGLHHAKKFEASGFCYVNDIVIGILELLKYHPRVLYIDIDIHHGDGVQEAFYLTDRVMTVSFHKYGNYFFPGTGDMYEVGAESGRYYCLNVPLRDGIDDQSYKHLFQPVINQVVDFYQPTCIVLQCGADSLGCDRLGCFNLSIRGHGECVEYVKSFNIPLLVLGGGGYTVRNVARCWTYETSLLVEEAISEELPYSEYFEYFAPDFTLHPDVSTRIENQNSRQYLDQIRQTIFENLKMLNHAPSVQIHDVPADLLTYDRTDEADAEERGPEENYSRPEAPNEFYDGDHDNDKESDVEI
Chain of HDAC3 (Q9Y618 395-489 partner limits assumed): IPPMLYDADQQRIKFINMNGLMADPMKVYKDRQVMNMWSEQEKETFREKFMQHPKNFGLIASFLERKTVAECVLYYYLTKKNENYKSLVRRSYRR

Turning to `CCOC(=O)NCCCC(=O)Nc1ccc(O[Si](C)(C)C(C)(C)C)cc1` [Compound 28, Ethyl (4-((4-((tert-butyldimethylsilyl)oxy)phenyl)amino)-4-oxobutyl)carbamate], in test [1], the “augmentation of CD3-stimulated anti-LAMP fluorescence increases (lytic granule exocytosis)” value is on record as 71%.

Turning to `O=C(CCCCCCC(=O)Nc1ccccc1)NO` [SAHA, suberoylanilide hydroxamic acid], the inhibition at 10 µM on HDAC3 was 99 ± 0.7%; on HDAC10 it was 100%; at HDAC6, 100%; at HDAC1, 100 ± 0.3%.

On to `CCOC(=O)NCCCC(=O)Nc1ccc(CO[Si](C)(C)C(C)(C)C)cc1` [Compound 27, Ethyl (4-((4-(((tert-butyldimethylsilyl)oxy)methyl)phenyl)amino)-4-oxobutyl)carbamate], for which the “augmentation of CD3-stimulated anti-LAMP fluorescence increases (lytic granule exocytosis)” value in test [1] is recorded as 26%.

(Values after publication PMC5065774 (Bioorganic & medicinal chemistry, 2016).)
